How the values were obtained:
[1] = molecular target: FGFR3 (Homo sapiens, UniProt P22607); assay: FGFR3 kinase inhibition; type: biochemical
[2] = molecular target: T1, FLK-1 (Mus musculus, UniProt P35918); assay: GST-FLK-1 bioassay (tyrosine kinase activity on poly(glu-tyr)); type: biochemical; conditions: GST-Flk1, poly(glu-tyr) substrate, 0.5 μM ATP
T1 construct: GST-Flklcd purified from sf9 recombinant baculovirus transfomnation (SUGEN, Inc.); host or cells: Sf9 insect cells, recombinant baculovirus
T1 sequence (P35918 784-1345 limits assumed): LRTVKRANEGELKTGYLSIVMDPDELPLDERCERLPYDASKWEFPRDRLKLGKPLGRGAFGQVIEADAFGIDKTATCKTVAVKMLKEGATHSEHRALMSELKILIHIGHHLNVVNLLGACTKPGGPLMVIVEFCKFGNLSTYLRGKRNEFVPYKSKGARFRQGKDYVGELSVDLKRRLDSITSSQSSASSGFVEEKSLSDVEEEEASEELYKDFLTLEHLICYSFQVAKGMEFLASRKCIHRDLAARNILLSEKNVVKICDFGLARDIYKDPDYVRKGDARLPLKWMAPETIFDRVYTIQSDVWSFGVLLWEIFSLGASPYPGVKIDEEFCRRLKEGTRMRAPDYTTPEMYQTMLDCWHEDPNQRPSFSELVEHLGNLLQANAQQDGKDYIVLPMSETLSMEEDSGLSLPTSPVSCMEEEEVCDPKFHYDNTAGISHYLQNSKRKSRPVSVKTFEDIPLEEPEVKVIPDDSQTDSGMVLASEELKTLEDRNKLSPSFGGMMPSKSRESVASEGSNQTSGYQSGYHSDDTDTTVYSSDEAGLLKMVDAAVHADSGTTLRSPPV
Procedure: This assay analyzes the tyrosine kinase activity of GST-Flk1 on poly(glu-tyr) peptides.
1. Corning 96-well ELISA plates (Corning Catalog No. 25805-96).
2. poly(glu-tyr) 4:1, lyophilizate (Sigma Catalog No. P0275), 1 mg/ml in sterile PBS.
3. PBS Buffer: for 1 L, mix 0.2 g KH2PO4, 1.15 g Na2HPO4, 0.2 g KCl and 8 g NaCl in approx. 900 ml dH2O. When all reagents have dissolved, adjust the pH to 7.2 with HCl. Bring total volume to 1 L with dH2O.
4. PBST Buffer: to 1 L of PBS Buffer, add 1.0 ml Tween-20.
5. TBB—Blocking Buffer: for 1 L, mix 1.21 g TRIS, 8.77 g NaCl, 1 ml TWEEN-20 in approximately 900 ml dH2O. Adjust pH to 7.2 with HCl. Add 10 g BSA, stir to dissolve. Bring total volume to 1 L with dH2O. Filter to remove particulate matter.
6. 1% BSA in PBS: add 10 g BSA to approx. 990 ml PBS buffer, stir to dissolve. Adjust total volume to 1 L with PBS buffer, filter to remove particulate matter.
8. GST-Flklcd purified from sf9 recombinant baculovirus transfomnation (SUGEN, Inc.).
12. Kinase Dilution Buffer (KDB): mix 10 ml Hepes (pH 7.5), 1 ml 5M NaCl, 40 μL 100 mM sodium orthovanadate and 0.4 ml of 5% BSA in dH2O with 88.56 ml dH2O.
13. NUNC 96-well V bottom polypropylene plates, Applied Scientific Catalog #AS-72092
14. EDTA: mix 14.12 g ethylenediaminetetraacetic acid (EDTA) with approx. 70 ml dH2O. Add 10 N NaOH until EDTA dissolves. Adjust pH to 8.0. Adjust total volume to 100 ml with dH2O.
15. 1° and 2° Antibody Dilution Buffer: mix 10 ml of 5% BSA in PBS buffer with 89.5 ml TBST.
16. Anti-phosphotyrosine rabbit polyclonal antisera (SUGEN, Inc.)
17. Goat anti-rabbit HRP conjugate.
18. ABST solution: To approx. 900 ml dH2O add 19.21 g citric acid and 35.49 g Na2HPO4. Adjust pH to 4.0 with phosphoric acid. Add 2,2′-Azinobis(3-ethyl-benzthiazoline-6-sulfonic acid (ABTS, Sigma, Cat. No. A-1888, hold for approx. ½ hour, filter.
19. 30% Hydrogen Peroxide.
20. ABST/H2O2: add 3 μl of H2O2 to 15 ml of ABST solution.
1. Coat Corning 96-well ELISA plates with 2 μg of polyEY in 100 μl PBS/well, hold at room temperature for 2 hours or at […] overnight. Cover plates to prevent evaporation.
2. Remove unbound liquid from wells by inverting plate. Wash once with TBST. Pat the plate on a paper towel to remove excess liquid.
3. Add 100 μl of 1% BSA in PBS to each well. Incubate, with shaking, for 1 hr. at room temperature.
5. Soak wells with 50 mM HEPES (pH7.5, 150 μl/well).
6. Dilute test compound with dH2O/4% DMSO to 4 times the desired final assay concentration in 96-well polypropylene plates.
7. Add 25 μl diluted test compound to each well of ELISA plate. In control wells, place 25 μl of dH2O/4% DMSO.
8. Dilute GST-Flk1 0.005 μg (5 ng)/well in KDB.
9. Add 50 μl of diluted enzyme to each well.
10. Add 25 μl 0.5 M EDTA to negative control wells.
11. Add 25 μl of 40 mM MnCl2 with 4×ATP (2 μM) to all wells (100 μl final volume, 0.5 μM ATP final concentration in each well).
12. Incubate, with shaking, for 15 minutes at room temperature.
13. Stop reaction by adding 25 μl of 500 mM EDTA to each well.
14. Wash 3× with TBST and pat plate on paper towel to remove excess liquid.
15. Add 100 μl per well anti-phosphotyrosine antisera, 1:10,000 dilution in antibody dilution buffer. Incubate, with shaking, for 90 min. at room temperature.
17. Add 100 μl/well of goat anti-rabbit HRP conjugate (1:6,000 in antibody dilution buffer). Incubate, with shaking, for 90 minutes are room temperature.
19. Add 100 μl room temperature ABST/H2O2 solution to each well.
20. Incubate, with shaking for 15 to 30 minutes at room temperature.
21. If necessary, stop reaction by adding 100 μl of 0.2 M HCl to each well.
22. Read results on Dynatech MR7000 ELISA reader with test filter at 410 nM and reference filter at 630 nM.

Sequence of FGFR3 (P22607 23-806, species assumed): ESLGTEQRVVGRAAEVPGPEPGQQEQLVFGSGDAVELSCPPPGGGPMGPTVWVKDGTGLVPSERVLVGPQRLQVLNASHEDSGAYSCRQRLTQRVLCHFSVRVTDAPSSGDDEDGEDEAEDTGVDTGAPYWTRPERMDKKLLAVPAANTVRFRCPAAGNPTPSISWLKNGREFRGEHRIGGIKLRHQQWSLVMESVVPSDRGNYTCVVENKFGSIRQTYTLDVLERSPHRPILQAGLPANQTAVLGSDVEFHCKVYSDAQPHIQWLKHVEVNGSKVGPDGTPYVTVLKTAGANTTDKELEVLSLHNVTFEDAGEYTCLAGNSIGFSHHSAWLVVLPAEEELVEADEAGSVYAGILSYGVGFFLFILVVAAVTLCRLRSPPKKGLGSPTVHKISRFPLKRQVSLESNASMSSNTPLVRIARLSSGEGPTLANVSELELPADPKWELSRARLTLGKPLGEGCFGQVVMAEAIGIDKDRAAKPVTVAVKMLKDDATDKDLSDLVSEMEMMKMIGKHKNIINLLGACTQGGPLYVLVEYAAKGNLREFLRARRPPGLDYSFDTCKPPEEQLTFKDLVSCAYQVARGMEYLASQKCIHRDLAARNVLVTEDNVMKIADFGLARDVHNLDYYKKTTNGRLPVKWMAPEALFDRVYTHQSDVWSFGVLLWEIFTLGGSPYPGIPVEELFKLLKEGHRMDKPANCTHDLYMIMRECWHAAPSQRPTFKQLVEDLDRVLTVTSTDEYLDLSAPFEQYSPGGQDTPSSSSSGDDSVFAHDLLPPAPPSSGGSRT

Compound	IC50 [1]	IC50 [2]
Cc1cc(C(=O)NCCn2ccnn2)c(/C=C2\C(=O)Nc3cccc(-c4cccc(Cl)c4)c32)[nH]1 [Example 34, 2-[4-(3-Chloro-phenyl)-2-oxo-1,2-dihydro-indol-3-ylidenemethyl]-5-methyl-1H-pyrrole-3-carboxylic Acid (2-[1,2,3]Triazol-1-yl-ethyl)-amide]	940 nM	1060 nM
Cc1[nH]c(/C=C2\C(=O)Nc3cccc(-c4ccc(F)cc4)c32)c(C)c1C(=O)N1CCN(C)CC1 [Example 4, 3-[3,5-Dimethyl-4-(4-methyl-piperazine-1-carbonyl)-1H-pyrrol-2-ylmethylene]-4-(4-fluoro-phenyl)-1,3-dihydro-indol-2-one]	–	74 nM
COc1cccc(-c2cccc3c2/C(=C/c2[nH]c(C)c(C(=O)NCCN(C(C)C)C(C)C)c2C)C(=O)N3)c1 [Example 52, 5-[4-(3-Methoxy-phenyl)-2-oxo-1,2-dihydro-indol-3-ylidenemethyl]-2,4-dimethyl-1H-pyrrole-3-carboxylic Acid (2-Diisopropylamino-ethyl)-amide]	< 9.1 nM	5 nM
Cc1[nH]c(/C=C2\C(=O)Nc3cccc(-c4ccc(Br)cc4)c32)c(C)c1C(=O)N1CCN(C)CC1 [Example 53]	680 nM	21 nM
Cc1[nH]c(/C=C2\C(=O)Nc3cccc(-c4ccccc4F)c32)c(C)c1C(=O)N1CCN(C)CC1 [Example 93, 3-[3,5-Dimethyl-4-(4-methyl-piperazine-1-carbonyl)-1H-pyrrol-2-ylmethylene]-4-(2-fluoro-phenyl)-1,3-dihydro-indol-2-one]	–	< 9.1 nM
CCN(CC)CCNC(=O)c1c[nH]c(/C=C2\C(=O)Nc3cccc(-c4ccc(Br)cc4)c32)c1C [Example 61, 5-[4-(4-Bromo-phenyl)-2-oxo-1,2-dihydro-indol-3-ylidenemethyl]-4-methyl-1H-pyrrole-3-carboxylic Acid (2-Diethylamino-ethyl)-amide]	< 9.1 nM	6 nM
COc1ccc(-c2cccc3c2/C(=C/c2[nH]c(C)cc2C(=O)NCCN2CCCC2)C(=O)N3)cc1 [Example 41, 2-[4-(4-Methoxy-phenyl)-2-oxo-1,2-dihydro-indol-3-ylidenemethyl]-5-methyl-1H-pyrrole-3-carboxylic Acid (2-Pyrrolidin-1-yl-ethyl)-amide]	790 nM	79 nM
Cc1cc(C(=O)NCCN2CCCC2)c(/C=C2\C(=O)Nc3cccc(-c4ccc(F)c(Cl)c4)c32)[nH]1 [Example 119, 2-[4-(3-Chloro-4-fluoro-phenyl)-2-oxo-1,2-dihydro-indol-3-ylidenemethyl]-5-methyl-1H-pyrrole-3-carboxylic Acid (2-Pyrrolidin-1-yl-ethyl)-amide]	–	180 nM
CCN(CC)CCNC(=O)c1c(C)[nH]c(/C=C2\C(=O)Nc3cccc(-c4ccccc4)c32)c1C [Example 3, 2,4-Dimethyl-5-(2-oxo-4-phenyl-1,2-dihydro-indol-3-ylidenemethyl)-1H-pyrrole-3-carboxylic Acid (2-Diethylamino-ethyl)-amide]	–	9 nM
COc1ccc(-c2cccc3c2/C(=C/c2[nH]c(C)c(C(=O)N4C[C@@H](C)N[C@@H](C)C4)c2C)C(=O)N3)cc1 [Example 40, 3-[4-((cis)-3,5-Dimethyl-piperazine-1-carbonyl)-3,5-dimethyl-1H-pyrrol-2-ylmethylene]-4-(4-methoxy-phenyl)-1,3-dihydro-indol-2-one]	380 nM	41 nM
Cc1[nH]c(/C=C2\C(=O)Nc3cccc(-c4cccc(C(F)(F)F)c4)c32)c(C)c1C(=O)N1CCN(C)CC1 [Example 104, 3-[3,5-Dimethyl-4-(4-methyl-piperazine-1-carbonyl)-H-pyrrol-2-ylmethylene]-4-(3-trifluoromethyl-phenyl)-1,3-dihydro-indol-2-one]	–	66 nM
Cc1[nH]c(/C=C2\C(=O)Nc3cccc(-c4ccc(Br)cc4)c32)c(C)c1C(=O)N1C[C@@H](C)N[C@@H](C)C1 [Example 57, 4-(4-Bromo-phenyl)-3-[4-[(cis)-3,5-dimethyl-piperazine-1-carbonyl)-3,5-dimethyl-1H-pyrrol-2-ylmethylene]-1,3-dihydro-indol-2-one]	87 nM	29 nM
Cc1cc(C(=O)NCCN2CCCC2)c(/C=C2\C(=O)Nc3cccc(-c4ccc(Br)cc4)c32)[nH]1 [Example 58, 2-[4-(4-Bromo-phenyl)-2-oxo-1,2-dihydro-indol-3-ylidenemethyl]-5-methyl-1H-pyrrole-3-carboxylic Acid (2-Pyrrolidin-1-yl-ethyl)-amide]	220 nM	54 nM
COc1cccc(-c2cccc3c2/C(=C/c2[nH]c(C)c(C(=O)NCCn4ccnn4)c2C)C(=O)N3)c1 [Example 48, 5-[4-(3-Methoxy-phenyl)-2-oxo-1,2-dihydro-indol-3-ylidenemethyl]-2,4-dimethyl-1H-pyrrole-3-carboxylic Acid (2-[1,2,3]Triazol-1-yl-ethyl)-amide]	190 nM	12 nM
Cc1cc(C(=O)N2CC[C@H](N(C)C)C2)c(/C=C2\C(=O)Nc3cccc(-c4ccc(F)cc4)c32)[nH]1 [Example 10, 3-[3-((S)-3-Dimethylamino-pyrrolidine-1-carbonyl)-5-methyl-1H-pyrrol-2-ylmethylene]-4-(4-fluoro-phenyl)-1,3-dihydro-indol-2-one]	–	180 nM
Cc1cc(C(=O)N2C[C@@H](C)N[C@@H](C)C2)c(/C=C2\C(=O)Nc3cccc(-c4cccc(Cl)c4)c32)[nH]1 [Example 35, 4-(3-Chloro-phenyl)-3-[3-((cis)-3,5-dimethyl-piperazine-1-carbonyl)-5-methyl-1H-pyrrol-2-ylmethylene]-1,3-dihydro-indol-2-one]	1990 nM	92 nM
Cc1cc(C(=O)N2C[C@@H](C)N[C@@H](C)C2)c(/C=C2\C(=O)Nc3cccc(-c4ccc(Cl)cc4)c32)[nH]1 [Example 27]	610 nM	170 nM
Cc1cc(C(=O)NCCn2ccnn2)c(/C=C2\C(=O)Nc3cccc(-c4ccccc4F)c32)[nH]1 [Example 99, 2-[4-(2-Fluoro-phenyl)-2-oxo-1,2-dihydro-indol-3-ylidenemethyl]-5-methyl-1H-pyrrole-3-carboxylic Acid (2-[1,2,3]Triazol-1-yl-ethyl)-amide]	–	170 nM
CCN(CC)CCNC(=O)c1c(C)[nH]c(/C=C2\C(=O)Nc3cccc(-c4ccc(OC(F)(F)F)cc4)c32)c1C [Example 140, 2,4-Dimethyl-5-[2-oxo-4-(4-trifluoromethoxy-phenyl)-1,2-dihydro-indol-3-ylidenemethyl]-1H-pyrrole-3-carboxylic Acid (2-Diethylamino-ethyl)-amide]	–	75 nM

Reference: US6677368B2, “4-aryl substituted indolinones” (Sugen, Inc., priority 2000, dated 2004)
